Holding throughout (assay type): functional
For assay [1], the system named is Candida tropicalis. In words: Tested for antifungal activity against 5-FC resistant strain Candida tropicalis CIP 1745-88 after 48 hr incubation.
A further assay has as its system Saccharomyces cerevisiae. In words: Tested for antifungal activity against Saccharomyces cerevisiae ATCC 28 383 after 48 hr incubation. The following applies: ATCC 28, 48 h.
The test system of assay [2] is Candida albicans. Nature of the assay: Tested for antifungal activity against Candida albicans CIP 1180-79 after 48 h incubation.
The subject of assay [3] is Candida tropicalis. Nature of the assay: Tested for antifungal activity against amp B resistant strain Candida tropicalis CIP 1275-81 after 48 hr incubation.
Assay [4] relates to Candida albicans. Nature of the assay: Tested for antifungal activity against azole resistant strain Candida albicans CIP 1760-88 after 48 hr incubation.

In ChEMBL document CHEMBL1133852, “Stereoselective synthesis of 7 alpha- and 7 beta-aminocholestanol as potent fungicidal drugs” (2001) one finds MIC data, which are given here for six compounds.

≈ marks a conversion by molar mass, not a printed value. Where only a bound is given, the exact number is not on record here.

As to `Nc1nc(=O)[nH]cc1F` [FLUCYTOSINE], the figures for the MIC in the assay on Candida tropicalis [1], against Saccharomyces cerevisiae and in the assay with Candida albicans [2] were > 100 µg/mL, 6.2 µg/mL (≈ 48 µM) and 50 µg/mL (≈ 387 µM), respectively.

As to `CC(C)CCC[C@@H](C)C1CC[C@H]2[C@@H]3[C@H](N)CC4C[C@@H](O)CC[C@]4(C)[C@H]3CC[C@]12C` (some centres undefined), the MIC against Candida tropicalis [1] is 3.1 µg/mL (≈ 7.68 µM); against Candida tropicalis [3], 1.5 µg/mL (≈ 3.72 µM); in the assay on Candida albicans [4], 3.1 µg/mL (≈ 7.68 µM); with Saccharomyces cerevisiae, 3.1 µg/mL (≈ 7.68 µM); in the assay with Candida albicans [2] it was 6.2 µg/mL (≈ 15.4 µM).

With `CC(C)CCCC(C)[C@H]1CC[C@H]2C3C(N)C=C4C[C@@H](O)CCC4(C)[C@H]3CCC12C` (some centres undefined), the MIC in the assay with Candida tropicalis [1] worked out at 3.1 µg/mL (≈ 7.72 µM); against Candida tropicalis [3], 1.5 µg/mL (≈ 3.73 µM); in the assay on Candida albicans [4], 2.3 µg/mL (≈ 5.73 µM); against Saccharomyces cerevisiae, 2.4 µg/mL (≈ 5.97 µM); in the assay on Candida albicans [2], 2.6 µg/mL (≈ 6.47 µM).

With `C[C@@H]1[C@H](O)[C@@H](C)/C=C/C=C/C=C/C=C/C=C/C=C/C=C/[C@H](O[C@@H]2O[C@H](C)[C@@H](O)[C@H](N)[C@@H]2O)C[C@@H]2O[C@](O)(C[C@@H](O)C[C@@H](O)[C@H](O)CC[C@@H](O)C[C@@H](O)CC(=O)O[C@H]1C)C[C@H](O)[C@H]2C(=O)O` [AMPHOTERICIN B], the minimal inhibitory concentration (MIC) in the assay on Candida tropicalis [3] was found to be 12.5 µg/mL (≈ 13.5 µM); with Saccharomyces cerevisiae it was 0.3 µg/mL (≈ 0.325 µM); against Candida albicans [2], 0.4 µg/mL (≈ 0.433 µM).

On to `c1ccc(-c2ccc(C(c3ccccc3)n3ccnc3)cc2)cc1` (centres undefined) [BIFONAZOLE], for which the MIC in the assay on Candida albicans [4] turned out to be 50 µg/mL (≈ 161 µM); against Saccharomyces cerevisiae it was 6.2 µg/mL (≈ 20 µM); in the assay with Candida albicans [2], 12.5 µg/mL (≈ 40.3 µM).

With `CC(C)CCC[C@@H](C)C1CC[C@H]2[C@@H]3[C@@H](N)CC4C[C@@H](O)CC[C@]4(C)[C@H]3CC[C@]12C` (some centres undefined), the MIC against Candida tropicalis [1] was determined as 3.1 µg/mL (≈ 7.68 µM); in the assay on Candida tropicalis [3], 1.5 µg/mL (≈ 3.72 µM); against Candida albicans [4], 1.5 µg/mL (≈ 3.72 µM); against Saccharomyces cerevisiae, 0.4 µg/mL (≈ 0.991 µM); against Candida albicans [2], 1.5 µg/mL (≈ 3.72 µM).
